Source: PMC9727064, “Performance assessment and economic analysis of a human Liver-Chip for predictive toxicology” (Communications Medicine, 2022)
Entries after “also recorded” stand apart in the source; their conditions may differ.

Tests used:
[1] = test system: human Liver-Chip (primary human hepatocytes); experiment: Liver-Chip alanine transaminase (ALT) release in top channel effluent (ELISA); type: cell-based
[2] = human, total plasma Cmax; ref Xu, J. J. et al. (36); cited from earlier work
[3] = test system: human Liver-Chip (primary human hepatocytes); experiment: Liver-Chip albumin production in top channel effluent (ELISA); type: cell-based; conditions: concentration causing a 50% reduction in albumin production
[4] = test system: 3D spheroid cultures of primary human hepatocytes; conditions: cited from earlier work
[5] = test system: human Liver-Chip (Kupffer cell activation); experiment: IL-6 and TNF-alpha in Liver-Chip effluent (MSD U-PLEX); conditions: effluent of Liver-Chips from three donors, no inflammatory stimulant
Procedure: Samples were added to plates manually at a 1:2 dilution. Plates were read for cytokine release on the MESO QuickPlex SQ 120 (Meso Scale Discoveries).

human Liver-Chip = experiment: Liver-Chip DILI prediction: minimum toxic concentration and margin of safety (MOS)-like figure;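 as to Chip MOS both donors: Toxic concentration is the lowest across albumin IC50 and ALT and morphology endpoints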;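 as to Chip MOS donor 1: Toxic concentration is the lowest across albumin IC50 and ALT and morphology endpoints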;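 as to Chip MOS donor 2: Toxic concentration is the lowest across albumin IC50 and ALT and morphology endpoints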
From the text: Because the fundamental principles of drug action dictate that free (unbound) drug concentrations drive drug effects, we explored an alternative methodology for calculating the MOS-like values by accounting for protein binding using a previously reported approach. Accordingly, we reanalyzed the findings for the 27 drugs in our study by accounting for protein binding.

Which results are given for `C[C@H]1COc2c(N3CCN(C)CC3)c(F)cc3c(=O)c(C(=O)O)cn1c23` [Levofloxacin]?
ALT_levels ([1]; Concentration_Day3 = 45, one line per replicate chip): 0; ALT Donor 1 ([1]; lowest concentration causing an increase in ALT protein, donor 1): >15 multiples of the unbound human Cmax; ALT Donor 2 ([1]; lowest concentration causing an increase in ALT protein, donor 2): >45 multiples of the unbound human Cmax; ALT Donor 3 ([1]; lowest concentration causing an increase in ALT protein, donor 3): >45 multiples of the unbound human Cmax; Human Cmax Total [2]: 15.8 µM; Albumin IC50 Donor 1 ([3]; donor 1): >15 multiples of the unbound human Cmax; Albumin IC50 Donor 2 ([3]; donor 2): >45 multiples of the unbound human Cmax; Albumin IC50 Donor 3 ([3]; donor 3): >45 multiples of the unbound human Cmax; Spheroid false negative ([4]; Yes/No, also No for drugs not tested in spheroid): Yes; Toxicity detection in 3D hepatic spheroids ([4]; threshold 50): not detected as toxic drugs in spheroids; IL-6 and TNFα cytokine production after treatment [5]: no concentration-dependent change in cytokine levels; also recorded: did not detect any concentration-related change; also recorded: unable to see any concentration-dependent increase in cytokine production; Chip MOS both donors (human Liver-Chip; free IC50 concentration in the assay divided by total concentration of drug in human plasma at Cmax, both donors): >33.7; Chip MOS donor 1 (human Liver-Chip; free IC50 concentration in the assay divided by total concentration of drug in human plasma at Cmax, donor 1): >11.3; Chip MOS donor 2 (human Liver-Chip; free IC50 concentration in the assay divided by total concentration of drug in human plasma at Cmax, donor 2): >33.7; Liver-Chip toxicity determination, MOS-like figure against threshold value of 50 (human Liver-Chip; not corrected for protein binding, donors one and two): not detected
